Experimental data from ChEMBL document CHEMBL4813923, “Design, synthesis and biological evaluation of novel scaffold benzo[4,5]imidazo [1,2-a]pyrazin-1-amine: Towards adenosine A2A receptor (A2A AR) antagonist” (Eur J Med Chem, 2021).

Target: Adenosine receptor A2a (Homo sapiens, UniProt P29274)
Experiment: Displacement of [3H]-ZM241385 from human recombinant A2A receptor expressed in human HEK293 cell membrane preincubated for 5 mins and measured after 1.5 hrs by radioligand competition binding assay
Format: cell membranes

Sequence of Adenosine receptor A2a (P29274 whole entry): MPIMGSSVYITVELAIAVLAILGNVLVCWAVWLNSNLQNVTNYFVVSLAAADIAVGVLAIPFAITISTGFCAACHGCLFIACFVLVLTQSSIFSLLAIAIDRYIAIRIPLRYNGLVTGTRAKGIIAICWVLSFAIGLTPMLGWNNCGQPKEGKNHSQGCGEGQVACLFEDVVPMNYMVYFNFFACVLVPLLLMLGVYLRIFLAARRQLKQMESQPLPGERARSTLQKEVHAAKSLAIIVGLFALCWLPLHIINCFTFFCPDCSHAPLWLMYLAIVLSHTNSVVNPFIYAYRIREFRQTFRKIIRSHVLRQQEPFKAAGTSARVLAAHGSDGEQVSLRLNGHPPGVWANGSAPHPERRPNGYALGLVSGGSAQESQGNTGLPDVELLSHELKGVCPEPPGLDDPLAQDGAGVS

Row | IC50 [nM] | Compound
1 | 26.5 | Nc1nc(-c2ccc(C(F)(F)F)cc2)cn2c1nc1ccccc12
2 | 35.4 | Nc1nc(-c2ccc(Cl)cc2)cn2c1nc1ccccc12
3 | > 10000 | Nc1nc(C2CCN(CC(=O)N3CCOCC3)CC2)cn2c1nc1ccccc12
4 | 33.7 | Nc1nc(-c2ccc(F)cc2F)cn2c1nc1ccccc12
5 | > 10000 | Nc1nc(C2CCNCC2)cn2c1nc1ccccc12
6 | > 10000 | COCCN1CCC(c2cn3c(nc4ccccc43)c(N)n2)CC1
7 | 32.6 | Nc1nc(-c2ccco2)cn2c1nc1ccccc12
8 | 81.3 | Nc1nc(-c2ccc(O)cc2)cn2c1nc1ccccc12
9 | 46.5 | Nc1nc(-c2ccccc2)cn2c1nc1ccccc12
10 | 33 | CC(C)(C)c1ccc(-c2cn3c(nc4ccccc43)c(N)n2)cc1
11 | 131 | Nc1nc(-c2ccc(OC(F)(F)F)cc2)cn2c1nc1ccccc12
12 | 312 | CC(=O)Nc1ccc(-c2cn3c(nc4ccccc43)c(N)n2)cc1
13 | 114 | Cc1c(-c2ccccc2)nc(N)c2nc3ccccc3n12
14 | 51.2 | COc1ccc(-c2cn3c(nc4ccccc43)c(N)n2)cc1
15 | 149 | Nc1nc(CO)cn2c1nc1ccccc12
16 | 74.4 | N#Cc1ccc(-c2cn3c(nc4ccccc43)c(N)n2)cc1
17 | 48.6 | CC(=O)Nc1cccc(-c2cn3c(nc4ccccc43)c(N)n2)c1
18 | 83.1 | COc1ccccc1-c1cn2c(nc3ccccc32)c(N)n1
19 | 38.4 | Nc1nc(-c2ccc(Br)cc2)cn2c1nc1ccccc12
20 | 10.1 | COc1cccc(-c2cn3c(nc4ccccc43)c(N)n2)c1
21 | 71.9 | Nc1nc(-c2ccc([N+](=O)[O-])cc2)cn2c1nc1ccccc12
22 | 14.4 | Cc1ccc(-c2cn3c(nc4ccccc43)c(N)n2)cc1

Target: T1, Adenosine receptor A1 (Homo sapiens, UniProt P30542)
T1 sequence (P30542 whole entry): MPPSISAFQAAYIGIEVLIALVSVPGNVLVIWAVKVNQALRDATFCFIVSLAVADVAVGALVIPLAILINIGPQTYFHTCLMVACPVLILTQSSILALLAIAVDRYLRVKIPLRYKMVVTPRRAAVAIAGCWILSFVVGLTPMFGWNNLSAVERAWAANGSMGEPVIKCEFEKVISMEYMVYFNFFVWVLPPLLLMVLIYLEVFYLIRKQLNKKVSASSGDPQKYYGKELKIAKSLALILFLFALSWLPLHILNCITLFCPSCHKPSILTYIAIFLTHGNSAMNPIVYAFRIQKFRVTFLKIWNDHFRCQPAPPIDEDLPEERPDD
Experiment: Displacement of [3H]DPCPX from human adenosine A1 receptor expressed in CHO-K1 cell membrane preincubated for 5 mins followed measured after 50 mins by radioligand competition binding assay
Format: cell membranes

Row | IC50 [nM] | Compound
23 | 4.4 | Nc1nc(-c2ccc(F)cc2F)cn2c1nc1ccccc12
24 | 6.3 | Nc1nc(-c2ccco2)cn2c1nc1ccccc12
25 | 92.1 | Nc1nc(-c2cccc(Br)c2)cn2c1nc1ccccc12
26 | 733 | Nc1nc(Cc2ccccc2)cn2c1nc1ccccc12
27 | 17 | CC(=O)Nc1cccc(-c2cn3c(nc4ccccc43)c(N)n2)c1
28 | 460 | COc1cccc(-c2cn3c(nc4cc(F)c(F)cc43)c(N)n2)c1
29 | 95.8 | COc1cccc(-c2cn3c(nc4ccccc43)c(N)n2)c1
30 | 63.9 | Cc1ccc(-c2cn3c(nc4ccccc43)c(N)n2)cc1
